Patent publication EP0719267B1, “SECOND MESSENGER CELL SIGNALING INHIBITORS” (CELL THERAPEUTICS, INC., priority 1993, dated 1994)

How the values were obtained:
[1] = test system: IL-2; assay: IL-2 production in thymocytes stimulated with ConA and IL-1 (ELISA); assay type: cell-based, murine; details: ConA and IL-1, 4 days
Excerpt: Thymocytes were stimulated with ConA and IL-1 for 4 days with or without adding inventive compounds to the culture media. The supernatants were removed and assayed by ELISA for IL-2 levels by a commercially available kit.

[2] = test system: murine cytotoxic T-cell line, CT6; assay: Cytokine-induced proliferation of the cytotoxic T-cell line CT6 / CT-6.1; assay type: cell-based
Procedure: Another assay in this example was used to determine inhibitive activity of the inventive compounds on direct IL-2-induced proliferation in a murine cytotoxic T-cell line, CT6. The CT6 cell line is an IL-2-dependent cell line. IL-2 was removed from the medium for 24 hours prior to stimulation. […] 49, 50, 45, 43 or 41 were added at various concentrations. The cells were stimulated with IL-2 and amount of tritiated thymidine dye incorporated was measured 48 hours later.
In another related assay, inhibitory effects on CT6 cell proliferation is examined. CT6 cells are a murine IL-2 dependent, cytotoxic T cell line that proliferate in response to murine IL-2 (15 U/ml).
CT-6.1 cells were starved overnight and stimulated with IL-2 (20 ng/ml). Twenty hours later, cells were labeled for 4 hours with ^3H-TdR and counted by liquid scintillation.
CT6.1 cells were cultured with IL-2 with or without the addition of inventive compound no. 45 (2 µM) and viable cells counted for up to 8 days. On day 4, two cultures previously incubated with compound no. 45, were washed and recultured with fresh IL-2 with or without compound no. 45 (2 µM).
Procedurally, CT-6.1 cells were starved overnight and stimulated with either IL-2 (20 ng/ml), IL-4 (50 ng/ml) or IL-7 (25 ng/ml). ^3H-TdR was added at 20 hours, cells were harvested 4 hours later, and the incorporation of ^3H-TdR was determined.

[3] = test system: IL-2 (alpha chain CD25) receptor; assay: IL-2 receptor expression on anti-CD3 stimulated splenocytes (flow cytometry); assay type: cell-based, mouse; details: anti-CD3 10 µg/ml, 1 µM
Procedure: This investigation illustrates IL-2 (alpha chain CD25) receptor expression on mouse splenoyctes. The IL-2 receptor is not expressed on resting T-cells, but is rapidly-induced by certain stimulants, e.g. antigen recognition or treatment with ConA or antibodies to CD3 (anti-CD3). IL-2-dependent proliferation requires IL-2 receptor expression. […] 49 (1 µM). Following overnight incubation, the splenocytes were stained with a fluoresceinated anti-IL-2 receptor antibody and fluorescence measured by flow cytometry. Figures 5A and 5B are frequency histograms of measurements for 20,000 cells per sample.
In another assay, inventive compound no. […] Murine splenocytes were activated for 24 hours with anti-CD3 (1 µg/ml), stained with a fluorescent antibody to CD25 and analyzed by flow cytometry.

[4] = test system: splenocyte IL-2-stimulated proliferation; assay: Splenocyte IL-2-stimulated proliferation; assay type: cell-based; details: Mus musculus, read-out: block of splenocyte IL-2-stimulated proliferation
[5] = test system: CMV promoter activity; assay: microbe, parasite or virus in culture; assay type: cell-based; details: for IC50: transformed (adenovirus) cells
Excerpt: This example illustrates data of proliferative activity of various inventive compounds for inducing CMV promoter activity. The CMV promoter assay measures gene transcription and translation activity wherein any active compounds will have cytotoxic activity for inhibiting cellular protein synthesis in transformed (adenovirus) cells. Compound no. […]

[6] = Cytotoxicity to stromal cells in the stromal cell/PDGF stimulation assay; assay type: cell-based; details: human, read-out: concentrations with cytotoxic effects
Procedure: In conjunction with the human stromal cell/PDGF stimulation assay, cytotoxicity of the inventive compounds tested to stromal cells was also determined. […] Only compond no.

[7] = test system: PDGF/IL-1 co-stimulation, proliferation; assay: PDGF/IL-1 co-stimulation proliferation assay; assay type: cell-based; details: fig. 14
Excerpt: The PDGF/IL-1 assay is useful in measuring in vitro activity, indicative of therapeutic potential for treating or preventing restenosis and reperfusion. Figure 14 reports IC50 bar graph results for a group of inventive compounds nos. 27, 28, 32, 30, 31, 32 and 34. In this predictive, in vitro model, compounds nos.

[8] = test system: Human stromal cells; assay: Stromal cell proliferation in response to PDGF-BB; assay type: cell-based; details: 50 ng/ml PDGF-BB
Procedure: This assay is useful for predicting therapeutic activity for preventing or treating restenosis, atherosclerosis and coronary artery disease. Human stromal cells were starved in serum-free media for one day and then stimulated with 50 ng/ml PDGF-BB. Inventive compounds, at various concentrations, were added one hour prior to PDGF stimulation. PDGF and tritiated thymidine were added and the cells allowed to incubate for one day, following addition of the PDGF and thymidine. 24 Hours later, the cells were harvested and counted by liquid scintillation counting. Results for compounds nos. Background counts (i.e., starved cells) were approximately 1% of control levels. […] 30, 28, 29, 32 and 31, respectively.

[9] = test system: Saccharomyces cervisiae; assay: Yeast growth assay (anti-yeast and anti-fungal activity); assay type: cell-based; details: 100 µM
Procedure: This example illustrates the effects of a reference compound "X", and inventive compounds nos. 29, 30, 31, 32 and 33 (see above for names and structures) on yeast growth (Saccharomyces cervisiae)--using 100 µM concentrations--as compared with yeast activity in the absence of any compound additive (control). This assay measured anti-yeast and anti-fungal activity of the inventive compounds tested.

[10] = test system: murine thymocyte proliferation; assay: Thymocyte proliferation stimulated by Con A and IL-1α; assay type: cell-based; details: Mus musculus, 2 h, added two hours prior to Con A and IL-1α
Procedure: In a first part of this example, compounds nos. 30, 33, 28 and 27 (see above for chemical names and structures) show effective inhibition of murine thymocyte proliferation stimulated by Con A and interleukin 1 alpha (IL-1α). Compounds nos. 30, 33, 28 and 27 were added to cell cultures two hours prior to activation with Con A and IL-1α in a thymocyte co-stimulation procedure akin to that discussed in example 21. […] IC50 values determined for each inventive compound tested are as follow: compound no. […] Background counts in the assay were less than 200 cpm.

[11] = test system: mast cell degranulation; assay: Serotonin release assay for inhibition of mast cell degranulation; assay type: cell-based; details: for % Inhibition: Concentration 50 µM
Excerpt: This assay provides an in vitro model for an allergy and asthma therapeutic product. […]

[12] = test system: murine thymocyte proliferation; assay: Thymocyte proliferation co-stimulated by ConA and IL-2 (tritiated thymidine); assay type: cell-based, Balb/C mice; details: for inhibition of thymocyte proliferation: ConA and IL-2 co-stimulation
Procedure: (§1) ConA, used to activate CD3, induces T-cell proliferation and differentiation. Thymuses, obtained from normal, female Balb/C mice, were dissociated and plated into 96-well plates at a density of 2 x 10^5 cells/well. ConA (0.25 mg/ml) and IL-2 (15 U/ml) were added to the wells. The cells were incubated for 4 days at 37°C. On day 4, the cells were pulsed with tritiated thymidine and incubated for an additional 4 hours. The amount of tritiated thymidine dye incorporated by the harvested cells was determined in a liquid scintillation counter. Drug doses (shown in figs. 1A and 1B) were added two hours prior to ConA and IL-2 activation.
as §1, with “Thymuses,” for “ConA, used to activate CD3, induces T-cell proliferation and differentiation. Thymuses,”, “37 °C.” for “37°C.”, “Doses” for “Drug doses”, “26A, 26B” for “1A”, “26C)” for “1B)”
In another in vitro protocol, thymocyte proliferation was induced by sub-mitogenic doses of Con A (0.25 µg/ml) and IL-2 (20 ng/ml). Cells were stimulated for 96 hours, prior to addition of ^3H-TdR for 4 hours. The cells were harvested and incorporation of ^3H-TdR was determined.
45 on co-stimulated thymocyte proliferation. In an assay procedure, murine thymocytes were stimulated with ConA and IL-2 with 1 µM compound no. 45 added either 1 hour prior to IL-2 (-1), simultaneous with IL-2 (0) or at various times following IL-2 addition (1-92 hour). At 92 hours the thymocytes were pulsed with ^3H-TdR, harvested and counted by scintillation 4 hours later.

[13] = test system: mouse thymocytes; assay: Con A priming followed by IL-2 restimulation of thymocytes; assay type: cell-based
Procedure: In a proliferation assay, mouse thymocytes were pre-incubated overnight with Con A (a "priming step"), washed, and restimulated with IL-2 in […] of inventive compounds. On day 4, the cells were pulsed with tritiated thymidine and allowed to incubate for an additional 4 hours. The cells were harvested and the amount of tritiated thymidine incorporated by the harvested cells was determined in a liquid scintillation counter. […] 3.
On day 4, the cells were pulsed with tritiated thymidine and allowed to incubate for an additional 4 hours. The cells were harvested and the amount of incorporated tritiated thymidine was determined in a liquid scintillation counter.

[14] = test system: proliferative PMBC response to allogeneic stimulation; assay: Two-way mixed lymphocyte reaction; assay type: cell-based
Excerpt: This example illustrates therapeutic potential for various autoimmune and inflammatory diseases of the inventive compounds by comparing potency (inhibitive activity) with cytotoxicity data obtained using the following indicative assay procedures. In a mixed lymphocyte reaction assay of compounds nos. […] Compounds nos. […] 2A and 2B. Both compounds nos. […] 2C.
Compound no. […] Compound no.

[15] = test system: mixed lymphocyte reaction assay culture; assay: Cell percent viability in mixed lymphocyte reaction culture; assay type: cell-based; details: 100 µM, six days of cell culture
Procedure: Cell percent viability in mixed lymphocyte reaction assay culture was determined after six days of cell culture. […] Control cells unexposed to drugs are generally 78 to 85% viable under these culture conditions. In this assay, all inventive compounds were present at 100 µM concentrations, generally well above corresponding IC50 values in this assay (see fig. 2D). […] Compounds nos.

[16] = test system: murine splenocyte proliferation; assay: Splenocyte (B cell) proliferation stimulated by anti-mu/anti-IgM and IL-4; assay type: cell-based; details: Mus musculus, anti-mu and IL-4 12.5 ng/ml
Procedure: This example illustrates inhibitive effects of compounds nos. 27 and 28 on murine splenocyte proliferation stimulated by anti-mu ([…]) and interleukin-4 (IL-4, 12.5 ng/ml). This in vitro assay, described above, is indicative of immune-suppressive/autoimmune treatment assay emphasizing humoral or B cell immune response. The inventive compound was added to the cells at the doses indicated two hours prior to activation with anti-mu and IL-4. Both compounds nos. 27 and 28 inhibited splenocyte proliferation in a dose-response manner. IC50 values for compounds nos. Background counts were less than 200 cpm.
In figure 57, results shown illustrate that inventive compound no. 45 inhibits B cell proliferation. Murine splenocytes were stimulated with anti-IgM antibodies (10 µg/ml) and murine IL-4 (12.5 ng/ml). Cells were pulsed with ^3HTdR at 44 hours, harvested 4 hours later, and the incorporation of ^3H-TdR was determined by liquid scintillation.

| Compound | IC50 [5] | inhibitive activity [7] | IC50 [8] | yeast-growth inhibitive activity [9] | IC50 [10] | % Inhibition [11] | inhibition of thymocyte proliferation [12] | cytotoxicity (percent viability) [15] | further results |
| --- | --- | --- | --- | --- | --- | --- | --- | --- | --- |
| CCCCCCCCCCNCC(O)CCCCCCCCCn1c(=O)c2c(ncn2C)n(C)c1=O (stereo not drawn) [compound no. 49, 1-(11-Decylamino-10-hydroxyundecyl)-3,7-dimethylxanthine] | – | – | – | – | – | – | – | – | IL-2 production [1]: do not inhibit production of IL-2; inhibition of direct IL-2-induced proliferation ([2]; added one hour prior to IL-2, thymidine at 48 hours): inhibited direct IL-2-induced CT6 proliferation; IL-2 receptor expression [3]: has no effect on receptor expression; inhibition at 1 µM [4]: 90% |
| CCCCCCCCNCC(O)CCCCCCCn1c(=O)c2c(ncn2C)n(C)c1=O (stereo not drawn) [compound no. 35, 1-(8-hydroxy-9-(N-octyl)aminononyl)-3,7-dimethylxanthine] | – | – | – | – | – | too toxic | – | – | inhibition of IL-2-induced proliferation ([2]; murine IL-2 (15 U/ml), figs. 21C and 21D): exhibited no activity in this assay; inhibition of thymocyte proliferation, compound added with IL-2 ([13]; Con A pre-treated cells, 1µM): dramatically inhibited thymocyte proliferation; proliferation in response to IL-2 after compound present during Con A priming ([13]; compound during overnight Con A incubation, IL-2 without compound): normal thymocyte proliferation in response to IL-2 stimulation; IC50 values (range in words) ([12]; figs. 21A and 21B): low micromolar |
| Cn1cnc2c1c(=O)n(CCCCC(O)CNCc1ccccc1)c(=O)n2C (stereo not drawn) [compound no. 13, 1-(5-hydroxy-6-(N-benzyl)aminohexyl)-3,7-dimethylxanthine] | > 500 µM | – | – | – | – | – | – | little or no cytotoxicity | IC50 ([14]; Lymphocyte, figs. 2A-2C): 55 µM; inhibition at 100 µM ([11]; Mast cell, Concentration 100 µM): 28% |
| CCCCCCN(CCCCCC)CC(O)CCCCn1c(=O)c2c(ncn2C)n(C)c1=O (stereo not drawn) [compound no. 33, 1-(5-hydroxy-6-(N,N-dihexyl)aminohexyl)-3,7-dimethylxanthine] | 100 µM | – | – | showed yeast-growth inhibitive activity | 8.6 µM | – | – | – | – |

The next lines start with results.

| IC50 [5] | Compound | inhibitive activity [7] | IC50 [8] | yeast-growth inhibitive activity [9] | IC50 [10] | % Inhibition [11] | inhibition of thymocyte proliferation [12] | cytotoxicity (percent viability) [15] | further results |
| --- | --- | --- | --- | --- | --- | --- | --- | --- | --- |
| 15 µM | CCCCCCCCCCCNCC(O)CCCCn1c(=O)c2c(ncn2C)n(C)c1=O (stereo not drawn) [compound no. 30, 1-(6-Undecylamino-5-hydroxyhexyl)-3,7-dimethylxanthine] | potent inhibitive activity | 0.9 µM | showed yeast-growth inhibitive activity | 0.94 µM | too toxic | the most potent immune-suppressive effects | – | cytotoxicity, ranking among compounds tested [5]: the most cytotoxic compound tested; MCC [6]: > 900 nM |
| 50 µM | CCCCCCCCNCC(O)CCCCn1c(=O)c2c(ncn2C)n(C)c1=O (stereo not drawn) [compound no. 28, 1-(5-hydroxy-6-(N-octyl)aminohexyl)-3,7-dimethylxanthine] | potent inhibitive activity | 3.2 µM | – | 4.6 µM | – | the most potent immune-suppressive effects | the most cytotoxic at 100 µM | IC50 [16]: 5.2 µM; immune suppression activity ([14]; fig. 2D): the most potent compound of those assayed |
